Assay results: ChEMBL document CHEMBL1127951, “Synthesis and RNA cleaving activities of polyamine derived novel artificial ribonuclease” (Bioorg Med Chem Lett, 1994)

Each compound was assayed on Nucleic Acid (assay: Binding affinity towards calf thymus DNA was determined). Settings: Bos taurus.
Type: nucleic-acid assay

K [M⁻¹] | Structure (SMILES)
150000 | NCCN(CCN)CCNC(=O)c1c2ccccc2nc2ccccc12
16000 | NCCC(=O)NCCN(CCNC(=O)Cc1c[nH]cn1)CCNC(=O)c1c2ccccc2nc2ccccc12
22000 | NCCN(CCNC(=O)Cc1c[nH]cn1)CCNC(=O)c1c2ccccc2nc2ccccc12
